According to patent US20250066319A1, “NOVEL ACID ADDITION SALT AND CRYSTALLINE FORM OF (2R, 3S)-2-(3-(4,5-DICHLORO-1H-BENZO[d]IMIDAZOL-1-YL)PROPYL)PIPERIDIN-3-OL” (Daewoong Pharmaceutical Co., Ltd., priority 2021, published 2025):
Structures can show the parent of a compound that is named as a salt.

Experiments:
[1] = Differential scanning calorimetry analysis after severe test with respect to temperature; format: physicochemical; conditions: high temperature condition (60° C.), 1 week and 8 weeks; Monohydrochloride
Protocol: For (2R,3S)-2-(3-(4,5-dichloro-1H-benzo[d]imidazol-1-yl)propyl)piperidin-3-ol monohydrochloride prepared in Example 1-1 and (2R,3S)-2-(3-(4,5-dichloro-1H-benzo[d]imidazol-1-yl)propyl)piperidin-3-ol dihydrochloride prepared in Comparative Example 1, each beaker was taken out 1 week and 8 weeks after the start of the test from the desiccator where the severe tests with respect to temperature were in progress, and the differential scanning calorimetry analysis was performed. At this time, the differential scanning calorimetry analysis was performed using a differential scanning calorimeter (DSC Q20, manufactured by TA Instruments) in a tightly closed pan under nitrogen purge at a scan rate of 10° C./min while raising the temperature from 20° C. to 300° C.

[2] = Hygroscopicity test (weight change in desiccators of constant relative humidity); format: physicochemical; set-up: scale not given here; conditions: room temperature, one day
Protocol: The hygroscopicity tests of the acid addition salts prepared in Examples 1-1 to 1-6 and Comparative Example 1 were performed.
After one day, the change in weight was measured, then transferred to another desiccator and the previous experiment was repeated. At this time, for sorption analysis, the weight change was measured by moving the sample from a low-humidity desiccator to a high-humidity desiccator, and for desorption analysis, the weight change was measured by transferring the sample from a high-humidity desiccator with high humidity to a low-humidity desiccator.

[3] = Stability confirmation: severe test with respect to moisture, HPLC peak area of main component; format: physicochemical; conditions: 93% RH, open beaker, Monohydrochloride
Protocol: (§1) The acid addition salts prepared in some Examples and Comparative Examples were subjected to stability tests against high temperature and high humidity.
And, the severe tests with respect to moisture were performed by placing 50 mg of a sample in a 10 ml beaker, and measuring the content of impurities using HPLC (Azura, KNAUER, P6.1 1 L, DAD 6.1 L) after 1 week, 2 weeks, 4 weeks, and 8 weeks while storing the sample in a 93% RH desiccator in a state that the lid was not closed so that the sample has sufficient contact with the moisture in the air.
(§2) At a fixed time after the start of the test, one vial or beaker was taken out from each time point (the number of samples per test: n=1), and impurities were analyzed using HPLC under the conditions shown in Table 3 below. Then, the peak area was determined through integration for all the detected peaks, and then the relative peak area (%) for the main component was calculated and expressed as an average value.

[4] = target: T1, PRS protein (prolyl-tRNA synthetase, PRS portion of EPRS) (Homo sapiens, UniProt P07814); assay: PRS enzyme activity inhibition experiment; format: biochemical; conditions: [3H]proline, 37° C., 5 to 10 minutes
T1 construct: the portion corresponding to PRS in cDNA of EPRS was subcloned; made in house
T1 sequence (P07814 1007-1512 limits assumed): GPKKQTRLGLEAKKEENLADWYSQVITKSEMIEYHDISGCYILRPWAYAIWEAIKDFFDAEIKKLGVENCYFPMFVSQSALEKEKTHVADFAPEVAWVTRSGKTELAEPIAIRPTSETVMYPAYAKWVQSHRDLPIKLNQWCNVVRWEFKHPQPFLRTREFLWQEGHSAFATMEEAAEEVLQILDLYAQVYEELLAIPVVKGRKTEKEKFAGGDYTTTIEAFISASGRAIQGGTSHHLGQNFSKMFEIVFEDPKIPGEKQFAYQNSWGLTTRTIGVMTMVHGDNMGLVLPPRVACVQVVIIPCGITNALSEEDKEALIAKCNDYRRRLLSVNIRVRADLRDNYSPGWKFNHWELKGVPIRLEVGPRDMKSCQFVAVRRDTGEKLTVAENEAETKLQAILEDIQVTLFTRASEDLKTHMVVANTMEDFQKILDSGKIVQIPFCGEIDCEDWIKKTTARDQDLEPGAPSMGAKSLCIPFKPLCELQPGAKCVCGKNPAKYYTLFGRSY
Protocol: IC50 values of PRS enzyme activity inhibition of the (2R,3S)-2-(3-(4,5-dichloro-1H-benzo[d]imidazol-1-yl)propyl)piperidin-3-ol monohydrochloride prepared in Example 1-1 were measured as follows.
Specifically, the portion corresponding to PRS in cDNA of EPRS was subcloned, and the obtained high-purity PRS protein was purified and used in the experiment. The compounds (1 μM) prepared in Examples were added into the reaction buffer (20 mM KPO4 (pH 7.4), 6 mM MgAc, 5 mM ATP, […] tRNA, 0.5 mM DTT, 20 mCi[^3H]proline (1 mCi/mL)) and allowed to react at 37° C. for 5 to 10 minutes. The reaction was terminated with 3M paper that was in advance dried by addition of 5% TCA. The radioactivity was measured using a liquid scintillation counter. % Inhibition and IC50 values of the compounds were calculated and analyzed using Microsoft Excel or Sigma Plot 8.0.

[5] = Stability confirmation: severe test with respect to temperature, HPLC peak area of main component; format: physicochemical; conditions: 60° C., relative humidity less than 10%, Monohydrochloride
Protocol: as §1
Specifically, the severe tests with respect to temperature were performed by placing 50 mg of a sample in a vial, closing the lid, and then measuring the content of impurities using HPLC (Azura, KNAUER, P6.1 1 L, DAD 6.1 L) after 1 week, 2 weeks, 4 weeks, and 8 weeks while storing in a chamber at 60° C. and a relative humidity of less than 10%.
as §2

O[C@H]1CCCN[C@@H]1CCCn1cnc2c(Cl)c(Cl)ccc21 [Example 1-1, (2R,3S)-2-(3-(4,5-dichloro-1H-benzo[d]imidazol-1-yl)propyl)piperidin-3-ol Monohydrochloride]
change in differential scanning calorimetry analysis pattern [1]: does not show any change in differential scanning calorimetry analysis pattern
weight change, desorption ([2]; 11% RH, Monohydrochloride): 100.8
weight change, desorption ([2]; 33% RH, Monohydrochloride): 101.2
weight change, desorption ([2]; 54% RH, Monohydrochloride): 100.8
weight change, desorption ([2]; 75% RH, Monohydrochloride): 101.7
weight change, sorption ([2]; 11% RH): 100
weight change, sorption ([2]; 33% RH, Monohydrochloride): 100
weight change, sorption ([2]; 54% RH, Monohydrochloride): 101
weight change, sorption ([2]; 75% RH, Monohydrochloride): 101.6
weight change, sorption ([2]; 93% RH, Monohydrochloride): 101.6
relative peak area for the main component (HPLC) ([3]; after 1 week): 99.8%
relative peak area for the main component (HPLC) ([3]; after 2 weeks): 99.9%
relative peak area for the main component (HPLC) ([3]; after 4 weeks): 99.8%
relative peak area for the main component (HPLC) ([3]; after 8 weeks): 99.9%
relative peak area for the main component (HPLC) ([3]; initial): 99.9%
IC50 [4]: 74 nM
relative peak area for the main component (HPLC) ([5]; after 1 week): 99.9%
relative peak area for the main component (HPLC) ([5]; after 2 weeks): 99.8%
relative peak area for the main component (HPLC) ([5]; after 4 weeks): 99.9%
relative peak area for the main component (HPLC) ([5]; after 8 weeks): 99.8%
relative peak area for the main component (HPLC) ([5]; initial): 99.9%
